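Results reflect a 48-hour exposure of cells in 96-well plates to compound at five concentrations. Abbreviation: GI50, concentration required for 50% inhibition of growth.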 Active and inactive are the calls of the source. Cut-off read from the data, not from the text of the source: active = GI50 up to about 1.1 µM and inactive = higher.
Tests used:
Assay in all cases: inhibition of tumour cell growth, NCI panel, 48 h
SF-268 = test system: SF-268
HCT-15 = test system: HCT-15
SNB-19 = test system: SNB-19
SK-MEL-5 = test system: SK-MEL-5
MCF7 = test system: MCF7
U-251 = test system: U-251
HOP-62 = test system: HOP-62
SK-MEL-28 = test system: SK-MEL-28
T47D = test system: T47D
SW-620 = test system: SW-620
PC-3 = test system: PC-3
TK-10 = test system: TK-10
A498 = test system: A498
CAKI-1 = test system: CAKI-1
SF-539 = test system: SF-539
MDA-N = test system: MDA-N
MDA-MB-435 = test system: MDA-MB-435
OVCAR-5 = test system: OVCAR-5
SR = test system: SR
HT-29 = test system: HT-29

SMILES | GI50 (SF-268) | GI50 (HCT-15) [µM] | GI50 (SNB-19) | GI50 (SK-MEL-5) | GI50 (MCF7) | GI50 (U-251) | GI50 (HOP-62) | GI50 (SK-MEL-28) | GI50 (T47D) | GI50 (SW-620) | GI50 (PC-3) | GI50 (TK-10) | GI50 (A498) | GI50 (CAKI-1) | GI50 (SF-539) | GI50 (MDA-N) | GI50 (MDA-MB-435) | GI50 (OVCAR-5) | GI50 (SR) | GI50 (HT-29)
C=C1C(=O)O[C@H]2C[C@@H]1[C@@H](O)[C@H](O)[C@@H](C)CCCC(C)=CCC[C@@]2(C)O | 22.6 µM (inactive) | 22.9 | > 100 µM (inactive) | 14.3 µM (inactive) | 10.1 µM (inactive) | 24.7 µM (inactive) | 24.3 µM (inactive) | 25.6 µM (inactive) | 20.2 µM (inactive) | > 10 µM (inactive) | 19.9 µM (inactive) | 14.9 µM (inactive) | 51.2 µM (inactive) | 5.06 µM (inactive) | 15.2 µM (inactive) | 9.86 µM (inactive) | 17.7 µM (inactive) | 19.1 µM (inactive) | 39.7 µM (inactive) | 
COc1cc2c(cc1O)C(Cc1ccc(OCc3ccccc3)c(OCc3ccccc3)c1)N(C(=O)NCCc1ccccc1)CC2 (stereo not drawn) | > 100 µM (inactive) | > 100 | > 100 µM (inactive) | 33 µM (inactive) | 14.8 µM (inactive) | > 100 µM (inactive) | > 100 µM (inactive) |  | 16.4 µM (inactive) | > 100 µM (inactive) | 54.7 µM (inactive) | > 100 µM (inactive) | 78.5 µM (inactive) | > 100 µM (inactive) | > 100 µM (inactive) | > 100 µM (inactive) | > 100 µM (inactive) | > 100 µM (inactive) | 37.3 µM (inactive) | > 100 µM (inactive)
CCn1c(SCC(=O)NNC(=S)NC)nc2ccccc2c1=O | > 100 µM (inactive) | > 100 | > 100 µM (inactive) | > 100 µM (inactive) | > 100 µM (inactive) | > 100 µM (inactive) | > 100 µM (inactive) | > 100 µM (inactive) | > 100 µM (inactive) | > 100 µM (inactive) | 96.8 µM (inactive) | 49 µM (inactive) | 69 µM (inactive) | 24.1 µM (inactive) | > 100 µM (inactive) | > 100 µM (inactive) | > 100 µM (inactive) | > 100 µM (inactive) | > 100 µM (inactive) | 
CCC(=O)Nc1ccc(NCC(=O)Nc2ccc(OC)cc2)cc1 | 17.7 µM (inactive) | 32.8 | 13.2 µM (inactive) | 17.5 µM (inactive) | 17.1 µM (inactive) |  | 2.99 µM (inactive) | 49.1 µM (inactive) | 21.1 µM (inactive) | 35.2 µM (inactive) | 26.2 µM (inactive) |  | 27.7 µM (inactive) | 13.5 µM (inactive) | 17.5 µM (inactive) | 29.8 µM (inactive) | 30.5 µM (inactive) | 17.4 µM (inactive) | 31.8 µM (inactive) | 20.9 µM (inactive)
Cc1ccc(S[C@@](C=O)(NC(=O)OCc2ccccc2)C(F)(F)F)cc1 | 22.6 µM (inactive) | 22.9 | 21 µM (inactive) | 23.7 µM (inactive) | 26.7 µM (inactive) | 17.6 µM (inactive) | 29 µM (inactive) | 25.3 µM (inactive) | 23.8 µM (inactive) | 21.8 µM (inactive) | 18.6 µM (inactive) |  | 65 µM (inactive) | 26.1 µM (inactive) | 24.7 µM (inactive) | 22.8 µM (inactive) | 28.8 µM (inactive) | 23.2 µM (inactive) | 14.5 µM (inactive) | 16.9 µM (inactive)
COc1cc2oc(=O)ccc2cc1CC=C(C)C [SUBEROSIN] | 47.8 µM (inactive) |  | 50.6 µM (inactive) | 37.3 µM (inactive) | 32.4 µM (inactive) | 43.3 µM (inactive) | > 100 µM (inactive) | 76.4 µM (inactive) | 15.8 µM (inactive) | 41.3 µM (inactive) | 83 µM (inactive) | 19.9 µM (inactive) | 27.2 µM (inactive) | 40.6 µM (inactive) | 37.7 µM (inactive) | 52.5 µM (inactive) | 43.3 µM (inactive) | 72.6 µM (inactive) | 21 µM (inactive) | 22.6 µM (inactive)
